From patent US7211577B2, “Water-soluble phenylpyridazine derivative and medicine containing the same” (Kowa Co., Ltd., priority 2003, dated 2007)

Tests used:
[1] = Water solubility test; assay type: physicochemical; details: for Solubility (%): purified water, from amount of water required for dissolution; for Dissolution in the added water (in words): 100 mL purified water added
Description: Experiment 2 (Water Solubility Test) Testing Method
Each sample compound was weighed in the amount shown in Table 3, to which purified water was added in 0.05 mL aliquots. The solubility (%) of the compound was determined based on the amount of water required for its dissolution.

[2] = Oral absorbability test on rats and/or mice; assay type: in vivo; details: orally administered to mice and/or rats, as in Experiment 3
Source text: Experiment 4 (Oral Absorbability Test on Rats and/or Mice)
In a similar manner as in Experiment 3, test compounds of Examples 23, 25, 143, 193, 245, 246, 247, 248 and 249 were orally administered to mice and/or rats to test their oral absorbability.

## COc1ccc(-c2cc(CN)c(=O)n(Cc3ccc(Cl)cc3)n2)cc1F.Cl [Example 206, 4-aminomethyl-2-(4-chlorobenzyl)-6-(3-fluoro-4-methoxyphenyl)-2H-pyridazin-3-one hydrochloride]
[1]
  Solubility (%): 0.06%

## COc1ccc(-c2cc(CN)c(=O)n(Cc3ccc(F)cc3)n2)cc1F.Cl [Example 195, 4-aminomethyl-2-(4-fluorobenzyl)-6-(3-fluoro-4-methoxyphenyl)-2H-pyridazin-3-one hydrochloride]
[1]
  Solubility (%): 0.2%

## Cc1cc(-c2cc(CN(C)C)c(=O)n(CC(C)C)n2)ccc1F.Cl [Example 89, 4-dimethylaminomethyl-6-(4-fluoro-3-methylphenyl)-2-isobutyl-2H-pyridazin-3-one hydrochloride]
[1]
  Solubility (%): >20%

## COc1ccc(-c2cc(CN3CCN(CCO)CC3)c(=O)n(CC=Cc3ccc(Cl)cc3)n2)cc1F.Cl.Cl [Example 249, 2-(4-chlorocinnamyl)-6-(3-fluoro-4-methoxyphenyl)-4-[4-(2-hydroxyethyl)-1-piperazinyl]methyl-2H-pyridazin-3-one dihydrochloride]
[1]
  Solubility (%): 0.03%
[2]
  Oral absorbability (FIGS. 2 to 6): good absorbability

## CCOC(=O)Nc1cc(-c2ccc(OC)cc2)nn(C/C=C/c2ccc(Cl)cc2)c1=O [compound 1, reference compound]
[1]
  Dissolution in the added water (in words): (insoluble)
  Solubility (%): <0.001%

## COc1ccc(-c2cc(CN3CCN(C)CC3)c(=O)n(CC=Cc3ccc(Cl)cc3)n2)cc1F.Cl.Cl [Example 248, 2-(4-chlorocinnamyl)-6-(3-fluoro-4-methoxyphenyl)-4-(4-methyl-1-piperazinyl)methyl-2H-pyridazin-3-one dihydrochloride]
[1]
  Solubility (%): 0.06%
[2]
  Oral absorbability (FIGS. 2 to 6): good absorbability

## COc1ccc(-c2cc(CN3CCN(Cc4ccccc4)CC3)c(=O)n(CC3CC3)n2)cc1F.Cl.Cl [Example 18, 4-(4-benzyl-1-piperazinyl)methyl-2-cyclopropylmethyl-6-(3-fluoro-4-methoxyphenyl)-2H-pyridazin-3-one dihydrochloride]
[1]
  Solubility (%): 1%

## CNC(=O)c1cc(-c2ccc(OC)cc2)nn(CC(C)C)c1=O [compound 2, reference compound]
[1]
  Dissolution in the added water (in words): (insoluble)
  Solubility (%): <0.001%

## COc1ccc(-c2cc(CN3CCN(C)CC3)c(=O)n(Cc3ccc(F)c(F)c3)n2)cc1F.Cl.Cl [Example 245, 2-(3,4-difluorobenzyl)-6-(3-fluoro-4-methoxyphenyl)-4-(4-methyl-1-piperazinyl)methyl-2H-pyridazin-3-one dihydrochloride]
[1]
  Solubility (%): 10%
[2]
  Oral absorbability (FIGS. 2 to 6): good absorbability

## COc1ccc(-c2cc(CN)c(=O)n(CC3CC3)n2)cc1F.Cl [Example 25, 4-aminomethyl-2-cyclopropylmethyl-6-(3-fluoro-4-methoxyphenyl)-2H-pyridazin-3-one hydrochloride]
[1]
  Solubility (%): 0.4%
[2]
  Oral absorbability (FIGS. 2 to 6): good absorbability

## COc1ccc(-c2cc(CN3CCNCC3)c(=O)n(CC3CC3)n2)cc1F.Cl.Cl [Example 21, 2-cyclopropylmethyl-6-(3-fluoro-4-methoxyphenyl)-4-(1-piperazinyl)methyl-2H-pyridazin-3-one dihydrochloride]
[1]
  Solubility (%): >20%

## COc1ccc(-c2cc(CN)c(=O)n(CC3CCCC3)n2)cc1F.Cl [Example 188, 4-aminomethyl-2-cyclopentylmethyl-6-(3-fluoro-4-methoxyphenyl)-2H-pyridazin-3-one hydrochloride]
[1]
  Solubility (%): 0.08%

## CSc1ccc(-c2cc(CN3CCN(C)CC3)c(=O)n(CC3CC3)n2)cc1.Cl.Cl [Example 149, 2-cyclopropylmethyl-4-(4-methyl-1-piperazinyl)methyl-6-[4-(methylthio)phenyl]-2H-pyridazin-3-one dihydrochloride]
[1]
  Solubility (%): >10%
other
  melting point: 234.6 to 239.2 °C

## COc1ccc(-c2cc(C(=O)O)c(=O)n(C/C=C/c3ccc(Cl)cc3)n2)cc1 [compound 4, reference compound]
[1]
  Dissolution in the added water (in words): (insoluble)
  Solubility (%): <0.001%

## COc1ccc(-c2cc(CCCN3CCNCC3)c(=O)n(CC3CC3)n2)cc1F.Cl.Cl [Example 214, 2-cyclopropylmethyl-6-(3-fluoro-4-methoxyphenyl)-4-[3-(1-piperazinyl)propyl]-2H-pyridazin-3-one dihydrochloride]
[1]
  Solubility (%): 10%

## Cc1cc(-c2cc(CN3CCN(C)CC3)c(=O)n(Cc3ccc(Cl)cc3)n2)ccc1F.Cl.Cl
other
  melting point: 246.4 to 249.7 °C (dec.)

## CC(C)Cn1nc(-c2ccccc2)cc(CN2CCN(C)CC2)c1=O.Cl.Cl
other
  melting point: 243.8 to 244.3 °C

## CN(C)Cc1cc(-c2ccc(S(C)(=O)=O)cc2)nn(CC2CC2)c1=O.Cl
other
  melting point: 239.5 to 240.7 °C

## Cc1cc(-c2cc(CN)c(=O)n(Cc3ccccc3Cl)n2)ccc1F.Cl
other
  melting point: 201.9 to 206.4 °C

## Cc1cc(-c2cc(CN3CCNCC3)c(=O)n(CC=Cc3ccc(Cl)cc3)n2)ccc1F.Cl.Cl
other
  melting point: 186.7 to 197 °C (dec.)

## COc1ccc(-c2cc(CN3CCNCC3)c(=O)n(CC3CC3)n2)cc1F [Example 20, 2-cyclopropylmethyl-6-(3-fluoro-4-methoxyphenyl)-4-(1-piperazinyl)methyl-2H-pyridazin-3-one]
other
  melting point: 111.5 to 118 °C

## Cc1ccc(-c2cc(CN(C)C)c(=O)n(CC(C)C)n2)cc1.Cl [Example 45, 4-dimethylaminomethyl-2-isobutyl-6-(4-methylphenyl)-2H-pyridazin-3-one hydrochloride]
[1]
  Solubility (%): 4%

## CC(C)Cn1nc(-c2ccc([S+](C)[O-])cc2)cc(CN2CCN(C)CC2)c1=O.Cl.Cl (stereo not shown)
other
  melting point: 224.5 to 229.1 °C (dec.)

## COc1ccc(-c2cc(CCCN)c(=O)n(CC3CC3)n2)cc1F.Cl [Example 217, 4-(3-aminopropyl)-2-cyclopropylmethyl-6-(3-fluoro-4-methoxyphenyl)-2H-pyridazin-3-one hydrochloride]
[1]
  Solubility (%): 10%

## CCN(CC)Cc1cc(-c2ccc(C)cc2)nn(CC(C)C)c1=O.Cl [Example 47, 4-diethylaminomethyl-2-isobutyl-6-(4-methylphenyl)-2H-pyridazin-3-one hydrochloride]
[1]
  Solubility (%): >20%

## COc1ccc(-c2cc(CN3CCNCC3)c(=O)n(Cc3ccc(F)cc3)n2)cc1F [Example 192, 2-(4-fluorobenzyl)-6-(3-fluoro-4-methoxyphenyl)-4-(1-piperazinyl)methyl-2H-pyridazin-3-one]
other
  melting point: 142 to 143 °C

## Cc1cc(-c2cc(CN(C)C)c(=O)n(CC=Cc3ccc(Cl)cc3)n2)ccc1F.Cl
other
  melting point: 201.3 to 201.9 °C

## CC(C)Cn1nc(-c2ccc(S(C)(=O)=O)cc2)cc(CN2CCNCC2)c1=O.Cl.Cl
other
  melting point: 222.4 to 224.2 °C

## CSc1ccc(-c2cc(CN3CCNCC3)c(=O)n(CC(C)C)n2)cc1.Cl.Cl
other
  melting point: 248.5 to 253.7 °C (dec.)
